Experimental data: ChEMBL document CHEMBL1821651, “Structure-activity relationships of phosphoinositide 3-kinase (PI3K)/mammalian target of rapamycin (mTOR) dual inhibitors: investigations of various 6,5-heterocycles to improve metabolic stability” (J Med Chem, 2011)
Values after ≈ are worked out from the molar mass of the structure shown.

Legend:
[1] = Clearance in cynomolgus monkey liver microsomes; type: ADME, Macaca fascicularis, Microsome
in vitro [2] = conditions: Sprague-Dawley, rat, liver microsomes
Description: Clearance in Sprague-Dawley rat liver microsomes

[3] = Clearance in mouse liver microsomes; type: ADME, Microsome
Rattus norvegicus [4] = species: Rattus norvegicus; assay: Liver blood flow in Sprague-Dawley rat; type: ADME, organism-based
[5] = Clearance in Beagle dog liver microsomes; type: ADME, Canis lupus familiaris, Microsome
in vitro [6] = conditions: human, liver microsomes
Description: Clearance in human liver microsomes

Mus musculus [7] = species: Mus musculus; assay: Liver blood flow in mouse; type: ADME, organism-based
Canis familiaris = species: Canis familiaris; assay: Liver blood flow in Beagle dog; type: ADME, organism-based, Canis lupus familiaris
[8] = target: Serine/threonine-protein kinase mTOR (Homo sapiens, UniProt P42345); assay: Inhibition of recombinant N-terminal GST-tagged mTOR-mediated 4E-BP1 phosphorylation after 60 mins by TR-FRET assay
[9] = Volume of distribution in iv dosed Sprague-Dawley rat; type: ADME, organism-based; conditions: in vivo
Mus musculus [10] = assay: Toxicity in nu/nu CD1 mouse xenografted with human U87MG cells assessed as weight loss at 3 mg/kg, po relative to control; type: organism-based, U-87MG ATCC; parameters: dose 3 mg/kg, route oral; conditions: in vivo
Plasma = Plasma EC50 for pAkt inhibition in nu/nu CD1 mouse xenografted with U87 MG tumor
[11] = Antitumor activity against human U87MG tumor xenografted in po dosed nu/nu CD1 mouse assessed as tumor growth delay; type: functional, U-87MG ATCC; conditions: U-87 MG
[12] = AUC (0 to 24 hrs) in plasma of nu/nu CD1 mouse xenografted with human U87MG cells at ED50; type: ADME, organism-based, U-87MG ATCC; parameters: time < 24 hr
[13] = target: Phosphatidylinositol 4,5-bisphosphate 3-kinase catalytic subunit beta isoform (Homo sapiens, UniProt P42338); assay: Inhibition of human N-terminal His-tagged PI3Kbeta expressed in insect Sf9 cells using PI(4,5)P2 as substrate after 20 mins by alphascreen assay in presence of 20 uM ATP
[14] = Oral bioavailability in Sprague-Dawley rat at 2 mg/kg; type: ADME, organism-based; conditions: in vivo
[15] = Clearance in iv dosed Sprague-Dawley rat; type: ADME, organism-based; conditions: in vivo
[16] = Ratio of drug level in tumor to plasma in nu/nu CD1 mouse xenografted with U87MG tumor at 3 mg/kg, po administered as single dose measured upto 16 hrs; type: ADME, organism-based; parameters: dose 3 mg/kg, route oral; conditions: tumor and plasma
[17] = AUC in Sprague-Dawley rat at 2 mg/kg, po; type: ADME, organism-based; parameters: dose 2 mg/kg, route oral; conditions: plasma
[18] = Ratio of drug level in tumor to plasma in nu/nu CD1 mouse xenografted with U87MG tumor at 1 mg/kg, po administered as single dose measured upto 8 hrs; type: ADME, organism-based; parameters: dose 1 mg/kg, route oral; conditions: tumor and plasma
[19] = target: Phosphatidylinositol 4,5-bisphosphate 3-kinase catalytic subunit alpha isoform (Homo sapiens, UniProt P42336); assay: Inhibition of human PI3Kalpha using PI(4,5)P2 as substrate after 20 mins by alphascreen assay in presence of 20 uM ATP
[20] = Elimination half life in iv dosed Sprague-Dawley rat; type: ADME, organism-based; conditions: in vivo, read-out: beta t1/2 (converted)
Mus musculus [21] = assay: In vivo inhibition of PI3Kalpha-mediated Akt phosphorylation in nu/nu CD1 mouse xenografted with U87MG tumor; type: functional, organism-based; conditions: CD1, U-87 MG
[22] = target: T1, Phosphatidylinositol 4,5-bisphosphate 3-kinase catalytic subunit delta isoform (Homo sapiens, UniProt O00329); assay: Inhibition of human N-terminal His-tagged PI3Kdelta expressed in insect Sf9 cells using PI(4,5)P2 as substrate after 20 mins by alphascreen assay in presence of 8 uM ATP
T1 sequence (O00329 whole entry): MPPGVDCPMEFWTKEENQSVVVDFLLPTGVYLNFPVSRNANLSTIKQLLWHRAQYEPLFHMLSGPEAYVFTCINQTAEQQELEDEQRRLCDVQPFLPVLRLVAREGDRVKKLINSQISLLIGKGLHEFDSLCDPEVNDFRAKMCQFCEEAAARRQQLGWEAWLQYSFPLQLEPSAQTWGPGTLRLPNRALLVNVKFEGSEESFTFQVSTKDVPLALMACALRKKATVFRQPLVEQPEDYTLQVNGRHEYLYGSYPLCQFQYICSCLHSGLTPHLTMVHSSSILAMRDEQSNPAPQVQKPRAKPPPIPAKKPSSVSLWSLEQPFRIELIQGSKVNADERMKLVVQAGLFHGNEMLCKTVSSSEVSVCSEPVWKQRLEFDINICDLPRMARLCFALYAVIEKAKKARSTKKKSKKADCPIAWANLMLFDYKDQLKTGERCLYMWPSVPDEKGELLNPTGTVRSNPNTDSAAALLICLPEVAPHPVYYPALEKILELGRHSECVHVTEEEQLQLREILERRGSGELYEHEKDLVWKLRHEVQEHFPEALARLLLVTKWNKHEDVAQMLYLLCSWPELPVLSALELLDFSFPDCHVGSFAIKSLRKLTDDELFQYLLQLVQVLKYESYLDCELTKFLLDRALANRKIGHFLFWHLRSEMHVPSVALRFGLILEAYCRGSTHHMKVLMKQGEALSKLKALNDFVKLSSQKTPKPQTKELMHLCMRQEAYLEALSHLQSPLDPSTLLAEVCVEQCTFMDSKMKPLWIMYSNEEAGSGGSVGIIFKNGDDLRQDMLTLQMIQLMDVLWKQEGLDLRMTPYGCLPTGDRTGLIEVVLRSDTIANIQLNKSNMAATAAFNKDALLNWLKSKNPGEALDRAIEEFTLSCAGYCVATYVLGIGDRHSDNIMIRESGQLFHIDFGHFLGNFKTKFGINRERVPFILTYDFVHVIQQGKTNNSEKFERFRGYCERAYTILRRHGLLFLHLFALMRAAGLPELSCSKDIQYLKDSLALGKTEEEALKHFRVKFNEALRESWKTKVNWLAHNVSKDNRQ

[23] = target: Phosphatidylinositol 4,5-bisphosphate 3-kinase catalytic subunit gamma isoform (Homo sapiens, UniProt P48736); assay: Inhibition of human N-terminal His-tagged PI3Kgamma expressed in insect Sf9 cells using PI(4,5)P2 as substrate after 20 mins by alphascreen assay in presence of 8 uM ATP
Rattus norvegicus [24] = assay: Liver blood flow in iv dosed Sprague-Dawley rat; type: ADME, organism-based; conditions: in vivo
[25] = Antitumor activity against human U87MG tumor xenografted in nu/nu CD1 mouse assessed as inhibition of tumor growth at 1 mg/kg, po qd; type: functional, U-87MG ATCC; conditions: U-87 MG, read-out: GI

Sequence of Phosphatidylinositol 4,5-bisphosphate 3-kinase catalytic subunit alpha isoform (P42336 whole entry, canonical isoform): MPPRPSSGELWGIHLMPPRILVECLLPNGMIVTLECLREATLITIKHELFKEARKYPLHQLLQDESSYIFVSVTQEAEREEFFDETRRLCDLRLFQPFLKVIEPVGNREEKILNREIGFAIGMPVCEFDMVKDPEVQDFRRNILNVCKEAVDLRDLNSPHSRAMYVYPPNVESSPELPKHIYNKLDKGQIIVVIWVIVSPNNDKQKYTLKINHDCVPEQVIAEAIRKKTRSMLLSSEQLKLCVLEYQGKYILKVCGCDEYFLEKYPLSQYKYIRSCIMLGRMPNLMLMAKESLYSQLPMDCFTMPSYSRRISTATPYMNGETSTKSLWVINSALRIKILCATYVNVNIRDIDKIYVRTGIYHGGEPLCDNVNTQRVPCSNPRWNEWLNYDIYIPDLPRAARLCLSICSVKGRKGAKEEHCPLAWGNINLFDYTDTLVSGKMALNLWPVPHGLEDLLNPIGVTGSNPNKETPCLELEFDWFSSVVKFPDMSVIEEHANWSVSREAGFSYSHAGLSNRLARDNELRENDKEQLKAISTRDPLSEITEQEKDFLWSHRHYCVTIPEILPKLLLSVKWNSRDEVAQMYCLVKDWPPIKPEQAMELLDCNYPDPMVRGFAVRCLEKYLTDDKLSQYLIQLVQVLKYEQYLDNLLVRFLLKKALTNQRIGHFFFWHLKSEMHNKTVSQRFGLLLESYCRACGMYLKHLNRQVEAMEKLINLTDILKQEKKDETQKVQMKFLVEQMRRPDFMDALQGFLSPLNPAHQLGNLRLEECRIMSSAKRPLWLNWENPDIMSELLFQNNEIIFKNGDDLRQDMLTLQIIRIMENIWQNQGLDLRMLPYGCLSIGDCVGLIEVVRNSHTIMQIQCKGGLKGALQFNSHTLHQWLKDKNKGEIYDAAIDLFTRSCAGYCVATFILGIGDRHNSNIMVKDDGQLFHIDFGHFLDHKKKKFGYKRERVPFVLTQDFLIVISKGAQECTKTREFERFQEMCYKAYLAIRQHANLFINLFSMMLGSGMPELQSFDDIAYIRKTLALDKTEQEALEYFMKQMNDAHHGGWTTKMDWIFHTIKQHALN
Sequence of Phosphatidylinositol 4,5-bisphosphate 3-kinase catalytic subunit beta isoform (P42338 whole entry, canonical isoform): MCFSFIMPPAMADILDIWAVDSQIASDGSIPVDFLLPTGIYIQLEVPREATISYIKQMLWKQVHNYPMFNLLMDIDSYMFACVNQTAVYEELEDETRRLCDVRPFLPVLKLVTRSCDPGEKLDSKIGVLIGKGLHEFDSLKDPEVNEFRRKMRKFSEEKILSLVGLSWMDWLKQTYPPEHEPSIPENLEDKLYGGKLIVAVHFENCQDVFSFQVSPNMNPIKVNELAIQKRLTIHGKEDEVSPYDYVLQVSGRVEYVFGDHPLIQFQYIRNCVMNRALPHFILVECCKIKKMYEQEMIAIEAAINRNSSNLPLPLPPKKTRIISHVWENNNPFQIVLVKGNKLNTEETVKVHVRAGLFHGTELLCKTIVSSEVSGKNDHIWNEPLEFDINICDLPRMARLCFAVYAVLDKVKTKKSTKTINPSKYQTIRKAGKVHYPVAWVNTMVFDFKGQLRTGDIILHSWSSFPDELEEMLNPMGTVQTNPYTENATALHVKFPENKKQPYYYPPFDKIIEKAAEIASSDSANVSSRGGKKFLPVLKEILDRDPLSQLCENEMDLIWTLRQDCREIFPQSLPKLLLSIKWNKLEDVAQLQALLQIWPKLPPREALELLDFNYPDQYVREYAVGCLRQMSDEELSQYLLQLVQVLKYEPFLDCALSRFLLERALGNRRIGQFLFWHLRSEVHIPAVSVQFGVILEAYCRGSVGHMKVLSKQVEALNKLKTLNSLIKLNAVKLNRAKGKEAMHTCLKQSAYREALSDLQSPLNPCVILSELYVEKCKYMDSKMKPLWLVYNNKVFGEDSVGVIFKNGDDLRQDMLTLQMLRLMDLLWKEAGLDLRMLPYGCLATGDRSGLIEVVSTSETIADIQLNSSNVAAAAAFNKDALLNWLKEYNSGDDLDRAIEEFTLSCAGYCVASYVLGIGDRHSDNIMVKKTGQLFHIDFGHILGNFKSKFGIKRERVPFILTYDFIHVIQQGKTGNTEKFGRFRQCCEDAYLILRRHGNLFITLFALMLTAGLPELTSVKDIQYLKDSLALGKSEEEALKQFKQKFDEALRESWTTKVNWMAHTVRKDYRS
Sequence of Phosphatidylinositol 4,5-bisphosphate 3-kinase catalytic subunit gamma isoform (P48736 whole entry, canonical isoform): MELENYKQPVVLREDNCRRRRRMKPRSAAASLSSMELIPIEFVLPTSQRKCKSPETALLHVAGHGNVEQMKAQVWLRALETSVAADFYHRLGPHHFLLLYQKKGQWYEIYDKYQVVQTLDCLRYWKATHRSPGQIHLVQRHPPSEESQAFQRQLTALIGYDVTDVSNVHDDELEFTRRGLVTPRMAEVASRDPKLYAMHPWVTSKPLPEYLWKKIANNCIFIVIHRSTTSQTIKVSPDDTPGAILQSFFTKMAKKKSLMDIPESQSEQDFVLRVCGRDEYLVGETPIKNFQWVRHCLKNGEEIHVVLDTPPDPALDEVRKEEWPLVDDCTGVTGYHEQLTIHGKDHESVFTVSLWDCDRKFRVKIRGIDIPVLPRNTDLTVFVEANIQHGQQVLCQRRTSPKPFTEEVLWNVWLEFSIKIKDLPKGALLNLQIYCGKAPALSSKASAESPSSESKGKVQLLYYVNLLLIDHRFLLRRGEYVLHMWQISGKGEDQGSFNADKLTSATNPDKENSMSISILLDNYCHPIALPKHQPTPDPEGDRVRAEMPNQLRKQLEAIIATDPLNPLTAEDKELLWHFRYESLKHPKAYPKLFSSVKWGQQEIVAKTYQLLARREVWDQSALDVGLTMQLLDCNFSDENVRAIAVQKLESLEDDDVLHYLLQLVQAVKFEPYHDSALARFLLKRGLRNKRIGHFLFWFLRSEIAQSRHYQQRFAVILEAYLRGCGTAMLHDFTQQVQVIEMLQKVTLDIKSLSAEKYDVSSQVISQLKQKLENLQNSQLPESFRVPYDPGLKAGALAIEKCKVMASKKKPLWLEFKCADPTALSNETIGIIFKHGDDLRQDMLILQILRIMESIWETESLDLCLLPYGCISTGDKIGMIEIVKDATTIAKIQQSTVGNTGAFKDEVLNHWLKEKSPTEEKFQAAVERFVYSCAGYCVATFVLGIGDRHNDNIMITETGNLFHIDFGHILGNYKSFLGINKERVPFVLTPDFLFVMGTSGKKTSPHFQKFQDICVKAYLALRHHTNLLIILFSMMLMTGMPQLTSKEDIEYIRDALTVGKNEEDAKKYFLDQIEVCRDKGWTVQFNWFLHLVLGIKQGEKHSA

IC50 [8]	Ki [19]	Compound	further results
		CC(=O)Nc1nc2ccc(-c3cnc(Cl)c(NS(=O)(=O)c4ccc(F)cc4)c3)cc2s1	microsomal CLint [1]: < 26 µL/min/mg; microsomal CLint (in vitro [2]): < 26 µL/min/mg; microsomal CLint [3]: < 26 µL/min/mg; QH (Rattus norvegicus [4]): 0.2%; microsomal CLint [5]: < 26 µL/min/mg; microsomal CLint (in vitro [6]): < 26 µL/min/mg; QH (Mus musculus [7]): 0.2%; QH (Canis familiaris): 0.2%
24 nM		Nc1nc2ccc(-c3cnc(Cl)c(NS(=O)(=O)c4ccc(F)cc4)c3)cc2s1	
33 nM		O=S(=O)(Nc1cc(-c2ccc3ncsc3c2)cnc1Cl)c1ccc(F)cc1	
0.4 nM	1.4 nM	CC(=O)Nc1cn2nc(-c3cnc(Cl)c(NS(=O)(=O)c4ccc(F)cc4)c3)ccc2n1	Vd [9]: 0.27 L/kg; Activity (Mus musculus [10]): < 5%; EC50 (Plasma): 500 nM; ED50 [11]: 0.7 mg/kg; AUC(0-t) at 24 h [12]: 9200 ng·h/mL; Ki [13]: 3.5 nM; bioavailability [14]: 46%; clearance [15]: 0.667 mL/min/kg; Kp at 16 h [16]: 0.27; AUC [17]: 11500 ng·h/mL; Kp at 8 h [18]: 0.13; half-life [20]: 7 h; EC50 (Mus musculus [21]): 0.232 µg/mL (≈ 0.503 µM); Ki [22]: 0.8 nM; Ki [23]: 1.9 nM; QH (Rattus norvegicus [24]): 1.2%; inhibition in vivo at 1 mg/kg [25]: 49%
35 nM	11 nM	Nc1cn2nc(-c3cnc(Cl)c(NS(=O)(=O)c4ccc(F)cc4)c3)ccc2n1	
49 nM	6.1 nM	O=S(=O)(Nc1cc(-c2ccc3nccn3n2)cnc1Cl)c1ccc(F)cc1	
6.6 nM	1.2 nM	CC(=O)Nc1cn2cc(-c3cnc(Cl)c(NS(=O)(=O)c4ccc(F)cc4)c3)ccc2n1	
20 nM	2.8 nM	Nc1cn2cc(-c3cnc(Cl)c(NS(=O)(=O)c4ccc(F)cc4)c3)ccc2n1	
229 nM	23 nM	O=S(=O)(Nc1cc(-c2ccc3nccn3c2)cnc1Cl)c1ccc(F)cc1	
20 nM	3.3 nM	CC(=O)Nc1nc2ccc(-c3cnc(Cl)c(NS(=O)(=O)c4ccc(F)cc4)c3)cc2[nH]1	
430 nM	119 nM	Nc1nc2ccc(-c3cnc(Cl)c(NS(=O)(=O)c4ccc(F)cc4)c3)cc2[nH]1	
446 nM	68 nM	O=S(=O)(Nc1cc(-c2ccc3nc[nH]c3c2)cnc1Cl)c1ccc(F)cc1	
146 nM	47 nM	CC(=O)Nc1nc2ccc(-c3cnc(Cl)c(NS(=O)(=O)c4ccc(F)cc4)c3)cc2o1	
70 nM	7.2 nM	Nc1nc2ccc(-c3cnc(Cl)c(NS(=O)(=O)c4ccc(F)cc4)c3)cc2o1	
76 nM	26 nM	O=S(=O)(Nc1cc(-c2ccc3ncoc3c2)cnc1Cl)c1ccc(F)cc1	
> 25000 nM	51 nM	O=S(=O)(Nc1cc(-c2ccc3nncn3c2)cnc1Cl)c1ccc(F)cc1	
292 nM	76 nM	O=S(=O)(Nc1cc(-c2ccc3sncc3c2)cnc1Cl)c1ccc(F)cc1	
